Experimental data reported in patent US6391571B1, “Recombinant inactive avidin mutants” (Roche Diagnostics GmbH, priority 1997, dated 2002).

Legend:
[1] = native polypeptide, non-covalent complex with biotin; cited from earlier work
[2] = tested on: monobiotinylated Fab' antibody fragment; assay: Affinity of streptavidin muteins to biotin derivatives, BIAcore system; format: binding; conditions: CM5 biosensor, 25° C.
Description: The affinity of the streptavidin muteins to biotin derivatives (constants Kon, Koff and KA) was determined in comparison to core streptavidin (wild type streptavidin) using the BIAcore system from the Pharmacia Co. For this the respective streptavidin samples were immobilized on the surface of biosensor chips (CM5 biosensor). The surface loading was selected in such a way that a measurement signal of 500 to 2000 resonance units (rU) was generated. The association kinetics were recorded for 3 min in each case at 25° C. and with 6 concentrations (12.5, 25, 50, 100, 200 and 400 nmol/l ) of a monobiotinylated Fab' antibody fragment. In order to investigate the influence of the reverse binding of the antibody, the dissociation kinetics in the absence and presence of 10 μg/ml core streptavidin were compared. The specificity of the binding was shown by an experiment with the same body in a non-biotinylated form (negative control).
The binding constants were determined for the purified streptavidin muteins as well as for streptavidin muteins cross-linked with a polymer (streptavidin-mutein […] serum albumin conjugates, preparation: EP-A-0 092).

Substance	binding affinity to biotin (KA) [1]	KA ([2]; monobiotinylated Fab')	Koff ([2]; monobiotinylated Fab')	t/2 diss ([2]; monobiotinylated Fab', cell prints h) [h]	Kon ([2]; streptavidin sample immobilized, 12.5-400 nmol/l monobiotinylated Fab')
avidin: native avidin, amino acid sequence SEQ ID NO.4	about 10^15 l/mol				
streptavidin: native streptavidin, protein sequence SEQ ID NO.2	about 10^15 l/mol				
wild-type: recombinant core streptavidin (shortened streptavidin), SEQ ID NO.16, produced per WO 93/09144		>10^10 1/mol	<10^−5 1/s	>20	2.2.10^5 1/mol.s
